Key:
Assay type in all cases: cell-based, mouse
[1] = test system: α7 integrin (LacZ reporter in α7βgal+/− myoblasts); experiment: Myoblast α7+/LacZ integrin FDG assay (Burkin assay in myoblasts, 96-well); conditions: α7+/LacZ myoblasts, 96-well
[2] = test system: α7 integrin (LacZ reporter in α7+/LacZ myotubes); experiment: Myotube α7 integrin FDG assay (Burkin assay in myotubes, 96-well); conditions: myotubes
[3] = test system: β-galactosidase in CMV-LacZ C2C12 myoblasts; experiment: CMV-LacZ secondary screen in C2C12 myoblasts (β-Gal stabilizing assay); conditions: CMV-LacZ C2C12 myoblasts
Procedure, shortened: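 CMV-LacZ C2C12 line (clonal, FDG-screened); myoblasts/myotubes dosed 0.5–40 μM (0.5, 1, 5, 10, 20, 40 μM); n=2 per point; β-gal stabilization read-out.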

[4] = test system: β-galactosidase in CMV-LacZ C2C12 myotubes; experiment: CMV-LacZ secondary screen in C2C12 myotubes (β-Gal stabilizing assay); conditions: C2C12 CMV-LacZ myotubes, fold relative to DMSO
Procedure, shortened: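 A secondary screen identifies compounds that stabilize β-gal independently of the native promoter, using CMV-LacZ C2C12 cells. Curves span 0.5–40 μM at six levels, in duplicate.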

| Compound | Burkin Assay in Myoblasts, signal relative to DMSO ([1]; 0.5 uM) | Burkin Assay in Myoblasts, signal relative to DMSO ([1]; 1 uM) | Burkin Assay in Myoblasts, signal relative to DMSO ([1]; 5 uM) | Burkin Assay in Myoblasts, signal relative to DMSO ([1]; 10 uM) | Burkin Assay in Myoblasts, signal relative to DMSO ([1]; 20 uM) | Burkin Assay in Myoblasts, signal relative to DMSO ([1]; 40 uM) | Burkin Assay in Myotubes, α7 integrin LacZ reporter signal relative to DMSO ([2]; 0.5 uM) | Burkin Assay in Myotubes, α7 integrin LacZ reporter signal relative to DMSO ([2]; 1 uM) | Burkin Assay in Myotubes, α7 integrin LacZ reporter signal relative to DMSO ([2]; 5 uM) | Burkin Assay in Myotubes, α7 integrin LacZ reporter signal relative to DMSO ([2]; 10 uM) | Burkin Assay in Myotubes, α7 integrin LacZ reporter signal relative to DMSO ([2]; 20 uM) | Burkin Assay in Myotubes, α7 integrin LacZ reporter signal relative to DMSO ([2]; 40 uM) | CMV-LACZ in Myoblasts (β-galactosidase activity relative to DMSO) ([3]; 0.5 uM) | CMV-LACZ in Myoblasts (β-galactosidase activity relative to DMSO) ([3]; 1 uM) | CMV-LACZ in Myoblasts (β-galactosidase activity relative to DMSO) ([3]; 5 uM) | CMV-LACZ in Myoblasts (β-galactosidase activity relative to DMSO) ([3]; 10 uM) | CMV-LACZ in Myoblasts (β-galactosidase activity relative to DMSO) ([3]; 20 uM) | CMV-LACZ in Myoblasts (β-galactosidase activity relative to DMSO) ([3]; 40 uM) | CMV-LACZ in Myotubes, signal relative to DMSO ([4]; 0.5 uM) | CMV-LACZ in Myotubes, signal relative to DMSO ([4]; 1 uM) | other results |
| --- | --- | --- | --- | --- | --- | --- | --- | --- | --- | --- | --- | --- | --- | --- | --- | --- | --- | --- | --- | --- | --- |
| CCOc1ccccc1NC(=O)c1cccc2c1C(=O)N(C1CCCCC1)C2 [MLS000912726-01] | 1.279 | 1.177 | 0.9838 | 1.02 | 1.1258 | 1.022 | 1.066 | 0.8889 | 0.8818 | 0.886 | 0.8231 | 0.8237 | 1.1004 | 0.9692 | 1.0182 | 1.0325 | 1.0257 | 1.0643 | 0.8527 | 0.9264 | CMV-LACZ in Myotubes, signal relative to DMSO ([4]; 5 uM): 0.9111; CMV-LACZ in Myotubes, signal relative to DMSO ([4]; 10 uM): 1.1041; CMV-LACZ in Myotubes, signal relative to DMSO ([4]; 20 uM): 1.2060; CMV-LACZ in Myotubes, signal relative to DMSO ([4]; 40 uM): 1.0150 |
| Cc1cc(C)cc(OCC(=O)N/N=C/c2ccccn2)c1 [MLS000710669-01] | 1.025 | 1.05 | 1.0722 | 0.9941 | 1.848 | 0.8243 | 1.045 | 1.163 | 1.054 | 0.9 | 0.9967 | 1.0073 | 1.0969 | 0.9975 | 1.0325 | 1.0823 | 1.1319 | 0.8778 | 0.9341 | 0.8881 | CMV-LACZ in Myotubes, signal relative to DMSO ([4]; 5 uM): 0.9690; CMV-LACZ in Myotubes, signal relative to DMSO ([4]; 10 uM): 1.2372; CMV-LACZ in Myotubes, signal relative to DMSO ([4]; 20 uM): 0.8682; CMV-LACZ in Myotubes, signal relative to DMSO ([4]; 40 uM): 1.1824 |
| Cc1nnc(-c2ccc(N3CCOCC3)c([N+](=O)[O-])c2)o1 [MLS001359861-01] | 0.9353 | 0.9376 | 0.9484 | 0.9324 | 0.8725 | 0.9113 | 1.095 | 1.184 | 0.9088 | 0.876 | 1.0337 | 0.804 | 0.9444 | 0.9184 | 0.9009 | 0.8064 | 0.9074 | 1.0330 | 0.8978 | 0.9533 | CMV-LACZ in Myotubes, signal relative to DMSO ([4]; 5 uM): 0.9547; CMV-LACZ in Myotubes, signal relative to DMSO ([4]; 10 uM): 1.1230; CMV-LACZ in Myotubes, signal relative to DMSO ([4]; 20 uM): 0.9976; CMV-LACZ in Myotubes, signal relative to DMSO ([4]; 40 uM): 0.9412 |
